melting point | Structure (SMILES)
82 °C | CCOC(=O)C(C#N)=C(SCc1ccccc1)SCc1ccccc1
95 °C | O=C1OCCC1N(C(=O)C1CC1)c1cccc(Cl)c1 (stereo unspecified)
117 to 121 °C | O=S(=O)(Cl)Cc1ccc(Br)cc1
40.6 °C | FC(F)(Cl)C(Cl)(Cl)Cl
213 °C | O=C(C1=NOC2C(=O)N(c3ccc(O)cc3)C(=O)C12)c1ccc([N+](=O)[O-])cc1 (stereo unspecified)
33.5 °C | Oc1c(F)ccc(F)c1F
60.5 °C | N#CC=C(Cl)C#N
31 °C | O=NN(CCCl)C(=O)NCCCl
130 to 131 °C | Nc1ccc2c(c1)CCCC2=O
71.5 °C | CCOc1ccc(N)c(N)c1
127 °C | COc1ccc(NC(=O)C(C)=O)cc1
60 °C | CC(C)C(CO)CCC(C)(O)C(O)C(C)C (stereo unspecified)
115 to 116 °C | O=C1c2ccccc2C(=O)C1(Cl)c1ccccc1
-73 °C | CCCC/C=C/CCCC
125 to 132 °C | Cn1ccc(-c2ccc(N)cc2)n1
118 to 119 °C | CC(=O)Nc1ccccc1C#Cc1ccccc1
222 to 228 °C | COc1cc2c(cc1OC)Cc1cc(OC)c(OC)cc1Cc1cc(OC)c(OC)cc1C2
-58 °C | COCCOC
126 °C | Cn1nc(-c2cc(OCC(=O)O)c(Cl)cc2F)c(Cl)c1OC(F)F
45 °C | CC=NO
59 °C | COc1cccc(F)c1C=O
142 °C | O=CC=Cc1ccc([N+](=O)[O-])cc1
221 °C | N#CC(C#N)=C1Sc2nc3ccccc3nc2S1
231 to 233 °C | O=Cc1cccc(-c2ccc(C(=O)O)cc2)c1

melting point | Structure (SMILES)
164 °C | COc1ccc(-c2csc(/C(C#N)=N/Nc3cccc(C)c3C)n2)cc1
243 to 245 °C | Cn1ccc2c(C(=O)O)cccc21
251 to 254 °C | O=c1c(N2CCCC2)c(N2CCOCC2)c1=O
150 °C | CC1=C(C(=O)OCc2ccccc2)C(c2ccc3ccccc3c2)NC(=O)N1C (stereo unspecified)
-28 °C | CC(=O)Oc1c(C)c(C)c2c(c1C)CCC(C)(CCCC(C)CCCC(C)CCCC(C)C)O2 (stereo unspecified)
118 to 119 °C | COc1ccccc1NC(=O)c1cnc(C(C)(C)C)c(Cl)n1
160 °C | Cn1c(/C(C#N)=N/Nc2ccc(Cl)cc2Cl)nc2ccccc21
-74 °C | CC(=O)CCC(C)C
198 to 201 °C | O=C(O)c1ccc(-c2ccc(Cl)cc2)o1
157 °C | N#CC(C=O)c1ccc(Cl)cc1 (stereo unspecified)
-70 °C | FC1(F)C(Cl)=C(Cl)C(F)(F)C(F)(F)C1(F)F
123 °C | CCOc1cc(C(=S)N2CCCCC2)ccc1O
209 to 213 °C | O=C(O)c1c(F)c(F)c(F)c(C(=O)O)c1F
174 to 177 °C | Cc1ccc(N)c(C(=O)O)c1
52 °C | COc1ccc(CC#N)cc1Br
166 °C | CC(=O)Oc1cn(C(C)=O)c2ccc(Br)c(Cl)c12
145 to 147 °C | CCn1c2c(c3cc(OC)ccc31)CCc1cc(OC)ccc1-2
162 to 170 °C | CC(CCC(O)(c1ccccc1)c1ccccc1)C1CCC2C3C(O)CC4CC(O)CCC4(C)C3CC(O)C12C (stereo unspecified)
136 to 138 °C | CCOC(=O)c1c[nH]nc1C
151 to 152 °C | C=CCNC(=S)Nc1sc2c(c1C(=O)OCC)CCCC2
60 to 80 °C | CCCCCCCCCCCCCCCCCCCCCCCCCCCCCC[Si](C)(C)Cl
33.5 °C | O=C(OCCOCCOC(=O)c1ccccc1)c1ccccc1
130 °C | Nc1c(Br)cc(Br)cc1[N+](=O)[O-]
186 °C | C=C=Cn1cnc2c(N)ncnc21

melting point | Structure (SMILES)
194 °C | O=C1c2ccccc2C(=O)c2c(O)cccc21
85 °C | FC(F)(F)C(F)(F)C(F)(F)c1cc(-c2ccccc2)[nH]n1
55 to 60 °C | CCN(CCO)S(=O)(=O)C(F)(F)C(F)(F)C(F)(F)C(F)(F)C(F)(F)C(F)(F)C(F)(F)C(F)(F)F
83 to 85 °C | NC(=S)c1ccccc1Br
242 to 245 °C | CC1C(C(=O)NN)C1C(=O)NN (stereo unspecified)
-43.1 °C | CCCCCCC(C)(C)S
128 °C | CC(=O)c1ccc(O)cc1C
82 to 83 °C | Cc1nc(-c2ccccc2)sc1N=C=O
79 °C | COC(=O)c1cc(Br)c(Br)s1
186 to 187 °C | CC(CC/C(=N/O)C(C)C)CC(=O)O (stereo unspecified)
168 to 172 °C | CC1=CS(=O)(=O)c2ccc(Cl)cc21
115 °C | COc1ccc2cnc(C)cc2c1
260 to 262 °C | O=C(CCc1ccc(O)cc1)c1c(O)cc(O)cc1O
75 to 77 °C | CC(C)C[C@@H](CC#N)NC(=O)OC(C)(C)C
148 to 151 °C | N#Cc1ccccc1-n1ccnc1
184 to 186 °C | Clc1nc(Cl)c2nc[nH]c2n1
176 °C | Cc1onc(-c2c(F)cccc2Cl)c1C(N)=S
84 °C | O=C1OC(/C=C/c2ccccc2)Cc2ccccc21 (stereo unspecified)
73 °C | Cc1c2c(c(CCl)c3c1CC3)CC2
53 to 55 °C | C1COCCOCCOCCN1
201 °C | Cc1nnc2sc(SCC(=O)O)nn2c1=O
35 to 38 °C | Brc1coc2ccccc12
-115 °C | CC=CC(C)(C)C
114 to 116 °C | Nc1cccnc1N

melting point | Structure (SMILES)
222 to 223 °C | O=C(C(=S)Nc1ccc(Cl)cc1)c1ccccc1
113 to 115 °C | Cc1cc(C)n(C(N)=O)n1
195 to 196 °C | COCc1cc(O)nc(SC)n1
95 to 96 °C | Cc1nc(-c2cccc(N)c2)no1
48 °C | CCN(CC)CCSC(=O)N(c1ccccc1)c1ccccc1
18.9 °C | CC(=O)OC(C)OC(C)=O
99 to 100 °C | Nc1ccc(CN2CCOCC2)cc1
41 °C | c1ccc(C(CCN2CCCCC2)c2ccccc2)cc1
80 to 90 °C | O=C(Cl)c1nnc(-c2ccccc2)o1
104 to 106 °C | O=C(CCl)Nc1cccc(Cl)c1Cl
83.5 °C | FC(F)(F)C(Cl)(Cl)C(Cl)(Cl)C(F)(F)F
206 °C | CC(=O)Nc1cc(NC(C)=O)c(OCCO)cc1OCCO
264 °C | COc1ccc(C2C(C#N)=C(N)Oc3cc(C)n(CCc4ccccc4)c(=O)c32)cc1 (stereo unspecified)
189 °C | O=C1/C(=C/c2ccc([N+](=O)[O-])cc2)SC(=S)N1CNc1ccc([N+](=O)[O-])cc1
48 to 49.5 °C | CCOC(=O)c1cc(-c2ccccc2)on1
99 °C | C1CCC(P(CP(C2CCCCC2)C2CCCCC2)C2CCCCC2)CC1
88 °C | Cc1ccc(C(C)CC(=O)C=Cc2ccccc2)cc1 (stereo unspecified)
-79 °C | CN1CCCC1c1cccnc1 (stereo unspecified)
131 °C | O=C(c1ccccc1)C(c1ccccc1)c1cc(Cl)c([N+](=O)[O-])cc1[N+](=O)[O-] (stereo unspecified)
128 to 134 °C | Cc1ccc(C(C=O)C=O)cc1
157 °C | COc1ccc(C(=S)Nc2ccccc2)cc1
142 to 143 °C | O=C1OC(c2ccccc2)=NC1=Cc1ccc(-c2ccccc2)o1
108 to 110 °C | O=C(O)c1cccc(CSc2cccs2)c1
210 °C | N#Cc1ccc(C=Cc2ccccc2C=O)c([N+](=O)[O-])c1

melting point | Structure (SMILES)
76 to 80 °C | COC(=O)c1cnc(Cl)nc1
93 to 95 °C | COc1ccc(CC(=O)O)cc1C
-30 °C | Cc1ccccc1CN
90 °C | CCOC(=O)c1cccnc1-c1ncccc1C(=O)OCC
254 °C | Nc1ccc(S(=O)(=O)Nc2ncccn2)cc1
146 °C | c1cc2c3c(cccc3c1)-c1nccnc1-2
67 °C | COc1ccc(C(O)c2ccccc2)cc1 (stereo unspecified)
32 °C | N#CCc1cc(C(F)(F)F)ccc1Cl
98 °C | O=C(OC(=O)C(c1ccccc1)c1ccccc1)C(c1ccccc1)c1ccccc1
131 °C | Nc1ccc(S(=O)(=O)c2ccc(NCCO)cc2)cc1
48 to 50 °C | Cc1sc(C2CCN(C(=O)OC(C)(C)C)CC2)nc1CC(=O)O
75 °C | Cc1ccccc1C1=Cc2ccccc2C2(OCCO2)O1
-16 °C | NCCN(CCN)CCN
49 °C | FC(F)(F)c1cc(Br)ccc1Br
54 to 60 °C | O=C1OC(=O)C2CC12 (stereo unspecified)
91 to 95 °C | CCOC(=O)Cc1csc(N)n1
138 to 139 °C | Nc1ccc(C=C/C(=N/O)c2ccccc2)cc1
157 °C | CC(=O)OCC(=O)C1CCC2C3CCC4=CC(=O)CCC4(C)C3CCC12C (stereo unspecified)
300 to 305 °C | COC(=O)Nc1nc2ccc(C(=O)c3cccs3)cc2[nH]1
77 to 78 °C | C[C@@]12CCC[C@@H]1C1=C(CC2)[C@@]2(C)CCC(=O)CC2CC1 (stereo partly specified)

Structure (SMILES) | melting point
N#CC(C#N)=C1c2cc([N+](=O)[O-])ccc2-c2c1cc([N+](=O)[O-])cc2[N+](=O)[O-] | 267 °C
C=C1C(=O)OC2C1CCC(C)C1(O)C=CC(=O)C21C (stereo unspecified) | 164 °C
O=C1CCN(C(=O)c2ccccc2)CC1 | 56 to 59 °C
COc1nc(NC(C)C)nc(NC(C)C)n1 | 91.5 °C
COc1ccc(C(N)C(N)c2ccc(OC)cc2)cc1 (stereo unspecified) | 148 to 152 °C
Brc1cccc(Br)c1 | -7 °C
CC1=CC(=O)OC2(C1)CC1CCC2CN1C (stereo unspecified) | 54.5 °C
CNC(=O)Oc1ccc(C)c(C)c1 | 79.5 °C
CN(C)c1ccc(N=O)cc1 | 92.5 °C
O=C(O)C(F)(F)C(F)(F)C(F)(F)C(F)(F)C(F)(F)C(F)(F)F | 31 to 36 °C
OOC1CCCc2ccccc21 (stereo unspecified) | 56 °C
CCC(C)(C)c1ccc(O)cc1 | 95 °C
CCNCC(O)c1cccc(O)c1 (stereo unspecified) | 148 °C
CC12CCC3C(C1CCC2=O)C1(CC2CC(=O)CCC23C)OCCO1 (stereo unspecified) | 205 to 208 °C
CC(C)C(C(=O)OC(C#N)c1cccc(Oc2ccccc2)c1)c1ccc(Cl)cc1 (stereo unspecified) | 60 °C

Source: a melting point compilation (Tetko et al.)
